Measurements as given in BindingDB's records for doi:10.7270/Q2N301S8 (D3R/Abbott, 2020).
pIC50: −log10 of the molar value.

These molecules were tested against Beta-secretase 1 (Homo sapiens, UniProt P56817) (assay: D3R2027).
Source text: D3R2027

Chain of Beta-secretase 1 (P56817 whole entry): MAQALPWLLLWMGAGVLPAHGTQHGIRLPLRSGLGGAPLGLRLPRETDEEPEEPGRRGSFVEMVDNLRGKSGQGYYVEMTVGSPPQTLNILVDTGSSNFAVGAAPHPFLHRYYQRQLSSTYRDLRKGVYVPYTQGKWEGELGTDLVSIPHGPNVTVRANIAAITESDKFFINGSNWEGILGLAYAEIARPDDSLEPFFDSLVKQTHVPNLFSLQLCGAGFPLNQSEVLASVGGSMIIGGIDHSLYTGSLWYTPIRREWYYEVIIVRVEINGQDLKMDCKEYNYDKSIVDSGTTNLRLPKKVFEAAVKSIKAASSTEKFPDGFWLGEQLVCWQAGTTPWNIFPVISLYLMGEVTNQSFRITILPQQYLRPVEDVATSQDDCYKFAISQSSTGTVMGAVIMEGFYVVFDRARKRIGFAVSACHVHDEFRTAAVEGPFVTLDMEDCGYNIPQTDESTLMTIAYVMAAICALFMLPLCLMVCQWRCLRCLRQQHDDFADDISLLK

pIC50	Structure (SMILES)
8.70	C[C@@H]1CCCCCCCCC(=O)N(C)[C@@H](C)C(=O)N[C@H]([C@H](O)CNC2(c3cc(C(C)(C)C)ccn3)CC2)C1 [BACE_23]
7.48	COCc1cc2cc(c1)C(=O)N[C@H]([C@H](O)CNC1(c3cccc(C(C)(C)C)c3)COC1)C[C@H](C)CCCCCCCN2 [BACE_60]
6.96	CCCCNC(=O)[C@H](C)C[C@H](O)[C@@H]1Cc2cccc(c2)OCCCCS(=O)(=O)C[C@@H](C)C(=O)N1 [BACE_156]
6.23	CC(C)(NC[C@@H](O)[C@@H]1Cc2cccc(c2)CCCCNc2cncc(c2)C(=O)N1)c1cccc(Br)c1 [BACE_120]
7.14	COCc1cc2cc(c1)C(=O)N[C@H]([C@H](O)CNCc1cccc(C(C)C)c1)Cc1cccc(c1)OCCCCO2 [BACE_15]
6.92	Cc1cc2cc(n1)OCCCCOc1cccc(c1)C[C@@H]([C@H](O)CNC(C)(C)c1cc(C(C)(C)C)sn1)NC2=O [BACE_110]
6.04	CCCCNC(=O)[C@H](C)C[C@H](O)[C@@H]1C[C@H](C)CCCC[C@H](C)CCC(=O)N[C@@H](C)C(=O)N1 [BACE_147]
6.44	CC(C)c1cccc(CNC[C@@H](O)[C@@H]2C[C@H](C)CCCCCCCCC(=O)N(C)CC(=O)N2)c1 [BACE_32]
7.68	C[C@@H]1CCCCCCCCS(=O)(=O)C[C@@H](C)C(=O)N[C@H]([C@H](O)CN[C@@H](C)c2cc(CC(C)(C)C)on2)C1 [BACE_39]
8.05	CC(=O)c1cc2cc(c1)C(=O)N[C@H]([C@H](O)CNC1(c3cccc(C(C)C)c3)CC1)Cc1cccc(c1)OCCCCN2 [BACE_14]
5.35	COc1cc2cc(c1)C1=N[C@@H](C[C@H](C)CCCCCCCN2)[C@H](CO)O1 [BACE_142]
8.02	CC(C)c1cccc(CNC[C@@H](O)[C@@H]2C[C@H](C)C/C=C\CCCCNc3cc(cc(Cl)n3)C(=O)N2)c1 [BACE_46]
8.12	CC(C)c1ccnc(C2(NC[C@@H](O)[C@@H]3C[C@H](C)CCCCCCCOc4cc(cc(Cl)n4)C(=O)N3)CC2)c1 [BACE_52]
7.49	CC(C)c1cccc(CNC[C@@H](O)[C@@H]2Cc3cccc(c3)OCCCCCC(=O)N(C)[C@@H](C)C(=O)N2)c1 [BACE_11]
8.35	CC(C)(C)Cc1cc(C(C)(C)NC[C@@H](O)[C@@H]2Cc3cccc(c3)OCCCCOc3cncc(c3)C(=O)N2)no1 [BACE_109]
7.05	CC(C)(C)c1ccnc(CNC[C@@H](O)[C@@H]2Cc3cccc(c3)OC/C=C\CNc3cc(cc(Cl)n3)C(=O)N2)c1 [BACE_103]
7.68	CCN1CCCCC[C@@H](C)C[C@@H]([C@H](O)CNCc2cccc(C(C)C)c2)NC(=O)c2cccc(c2)C1=O [BACE_6]
6.00	CC(C)c1cccc(CNC[C@@H](O)[C@@H]2Cc3cccc(c3)CCCCN(C)c3cccc(c3)C(=O)N2)c1 [BACE_118]
6.59	CC(C)c1cccc(CNC[C@@H](O)[C@@H]2Cc3cccc(c3)OCCCCO[C@H]3CCN(CC(=O)N2)C3=O)c1 [BACE_89]
6.62	CCCCNC(=O)[C@H](C)C[C@H](O)[C@@H]1Cc2cccc(c2)CCCCNc2cc(cc(C)n2)C(=O)N1 [BACE_155]
8.00	C[C@@H]1CC(=O)NCCCCOc2cccc(c2)C[C@@H]([C@H](O)CNC2(c3cccc(C(C)(C)C)c3)CCCCC2)NC1=O [BACE_93]
9.30	CC(C)c1ccnc(C2(NC[C@@H](O)[C@@H]3Cc4cccc(c4)CCCCNc4cc(cc(Cl)n4)C(=O)N3)CC2)c1 [BACE_98]

pIC50	Structure (SMILES)
6.52	CC(C)c1cccc(CNC[C@@H](O)[C@@H]2C[C@H](C)CC/C=C/CCCCC(=O)N(C)[C@@H](C)C(=O)N2)c1 [BACE_21]
7.03	COCc1cc2cc(c1)C(=O)N[C@H]([C@H](O)CNCc1cccc(C(C)C)c1)C[C@H](C)CCCCCCCN2 [BACE_9]
5.68	Cc1cc2cc(n1)N(C)CCCCCC[C@@H](C)C[C@@H]([C@H](O)CNCc1cccc(C(C)C)c1)NC2=O [BACE_44]
4.43	CC(C)c1ccnc(CNC[C@@H](O)[C@@H]2Cc3cccc(c3)OCCCCOc3cccc(c3)C(=O)N2C)c1 [BACE_139]
8.70	CC(C)c1ccc2c(c1)[C@@H](NC[C@@H](O)[C@@H]1Cc3cccc(c3)OCCCCCC(=O)N(C)[C@@H](C)C(=O)N1)CC(C)(C)O2 [BACE_91]
7.60	COCc1cc2cc(c1)C(=O)N[C@H]([C@H](O)CNC(C)(C)c1cc(C(C)(C)C)ccn1)Cc1cccc(c1)OCCCCN2 [BACE_124]
7.96	CC(C)c1cccc(CNC[C@@H](O)[C@@H]2C[C@H](C)CCCCCCCOc3cc(cc(N(C)S(C)(=O)=O)c3)C(=O)N2)c1 [BACE_82]
8.82	C[C@@H]1CCCCCCCNc2cc(cc(C(=O)N(C)C)c2)C(=O)N[C@H]([C@H](O)CNC2(c3cccc(C(C)(C)C)c3)CC2)C1 [BACE_68]
9.00	COCc1cc2cc(c1)C(=O)N[C@H]([C@H](O)CN[C@H]1CC(C)(C)Oc3ccc(C(C)C)cc31)C[C@H](C)CCCCCCCN2 [BACE_63]
5.47	COCc1cc2cc(c1)C(=O)N[C@H]([C@H](O)CNCc1ccc3c(c1)OCCCO3)C[C@H](C)CCCCCCCN2 [BACE_62]
6.59	CCCCNC(=O)[C@H](C)C[C@H](O)[C@@H]1C[C@H](C)CCc2cccc(c2)CS(=O)(=O)C[C@@H](C)C(=O)N1 [BACE_19]
7.39	CN(C)C(=O)c1cc2cc(c1)C(=O)N[C@H]([C@H](O)CNC1(c3cccc(C(C)(C)C)c3)CC1)Cc1ccc(F)c(c1)OC/C=C\CN2 [BACE_131]
5.77	Cc1cc2cc(n1)OCCCOCC[C@@H](C)C[C@@H]([C@H](O)CNCc1cccc(C(C)C)c1)NC2=O [BACE_54]
8.46	CCN1CCCCC[C@@H](C)C[C@@H]([C@H](O)CNCc2cccc(C(C)C)c2)NC(=O)c2cc(cc(-c3ncco3)c2)C1=O [BACE_40]
6.52	C[C@@H]1CCCCCCCOc2cccc(c2)C(=O)N[C@H]([C@H](O)CN[C@@H](C)c2cc(CC(C)(C)C)on2)C1 [BACE_79]
8.12	C[C@@H]1CCCCCCOCC(=O)N(C)[C@@H](C)C(=O)N[C@H]([C@H](O)CNC2(c3cccc(C(C)(C)C)c3)CC2)C1 [BACE_4]
5.19	COCc1cc2cc(c1)C(=O)O[C@@H](CNC1(c3cccc(C(C)C)c3)CC1)[C@@H](N)Cc1cccc(c1)OCCCCN2 [BACE_144]
7.41	COc1ccc2cc1OCCCCNc1cc(cc(Cl)n1)C(=O)N[C@H]([C@H](O)CNCc1cccc(C(C)C)c1)C2 [BACE_100]
5.54	CC(C)c1cccc(C(C)(C)NC[C@@H](O)[C@@H]2C[C@H](C)CCCCCCCNc3cccc(n3)C(=O)N2)c1 [BACE_70]
6.25	CCCCNC(=O)[C@H](C)C[C@H](O)[C@@H]1C[C@H](C)CCCCCCCCS(=O)(=O)C[C@@H](C)C(=O)N1 [BACE_151]
5.08	COCc1cc2cc(c1)C(=O)N[C@H]([C@H](O)[C@H]1CO[C@@H](COC)CN1)Cc1cccc(c1)OCCCCN2 [BACE_13]
5.23	C[C@@H]1CCCCCCNC(=O)C[C@@H](C)C(=O)N[C@H]([C@H](O)CNCc2cccc(C(C)(C)C)c2)C1 [BACE_37]

pIC50	Structure (SMILES)
5.82	CC(C)Oc1ccc(C2CC2)cc1CNC[C@@H](O)[C@@H]1C[C@H](C)CCCCCCOCC(=O)N(C)[C@@H](C)C(=O)N1 [BACE_36]
7.80	Cc1cc2cc(n1)OCCCCc1cc(cc(Cl)c1O)C[C@@H]([C@H](O)CNC(C)(C)c1cc(CC(C)(C)C)on1)NC2=O [BACE_108]
7.64	C[C@@H]1CCCCCCCNc2cccc(c2)C(=O)N[C@H]([C@H](O)CNC(C)(C)c2cc(CC(C)(C)C)on2)C1 [BACE_57]
6.82	Cc1cc2cc(n1)OCCCCc1cccc(c1)C[C@@H]([C@H](O)CNC(C)(C)c1cccc(C(C)C)c1)NC2=O [BACE_106]
7.10	COCc1cc2cc(c1)C(=O)N[C@H]([C@H](O)CNC1(c3cccc(C(C)C)c3)CC1)C/C(C)=C/COCCCCN2 [BACE_77]
7.17	Cc1cc2cc(c1)OCCCCNc1cc(cc(Cl)n1)C(=O)N[C@H]([C@H](O)CNCc1cccc(C(C)C)c1)C2 [BACE_105]
6.11	CCCCNC(=O)[C@H](C)C[C@H](O)[C@H](Cc1ccccc1)NC(=O)c1cc(NCCCC)nc(OC)c1 [BACE_20]
5.64	CC(C)c1cccc(C(C)(C)NC[C@@H](O)[C@@H]2Cc3cccc(c3)OCCCCNc3cccc(n3)C(=O)N2)c1 [BACE_122]
7.34	Cc1cc2cc(n1)NN(C(=O)c1ccc(F)cc1)CCCCCC[C@@H](C)C[C@@H]([C@H](O)CNCc1cccc(C(C)C)c1)NC2=O [BACE_50]
8.24	C[C@@H]1CCCCCCCCC(=O)N(C)[C@@H](C)C(=O)N[C@H]([C@H](O)CNC(C)(C)c2cc(CC(C)(C)C)on2)C1 [BACE_27]
5.77	CC(C)c1cccc(CNC[C@@H](O)[C@@H]2C[C@H](C)CCCCCCCC[C@@]3(O)CCC[C@H](C3)C(=O)N2)c1 [BACE_86]
6.77	C[C@@H]1CCCCCCCNc2cccc(c2)C(=O)N[C@H]([C@H](O)CNC2(c3cccc(C(C)(C)C)c3)COC2)C1 [BACE_56]
6.82	C[C@@H]1CCOCCCCNc2cc(ccc2Cl)C(=O)N[C@H]([C@H](O)CNCc2cc(C(C)(C)C)ccn2)C1 [BACE_74]
6.60	CC(C)c1cccc(CNC[C@@H](O)[C@@H]2Cc3cccc(c3)CCCCOc3cc(cc(-c4ncco4)c3)C(=O)N2)c1 [BACE_132]
7.05	COc1cc2cc(n1)N(C)CCCCc1cccc(c1)C[C@@H]([C@H](O)CNCc1cccc(C(C)C)c1)NC2=O [BACE_99]
6.02	COc1ccc2cc1OCCCCNc1cc(CO)cc(c1)C(=O)N[C@H]([C@H](O)CNCc1cccc(C(C)C)c1)C2 [BACE_130]
8.14	C/C1=C\CCCCCCNc2cc(cc(C)n2)C(=O)N[C@H]([C@H](O)CNCc2cccc(C(C)C)c2)C1 [BACE_45]
7.22	COCc1cc2cc(c1)C(=O)N[C@H]([C@H](O)CNC1(c3cccc(C(C)(C)C)c3)CC1)C[C@H](C)CCOC/C=C\CN2 [BACE_75]
8.70	CC(C)c1cccc(CNC[C@@H](O)[C@@H]2C[C@H](C)CCCCCN([C@H](C)c3ccccc3)C(=O)c3cc(cc(-c4ncco4)c3)C(=O)N2)c1 [BACE_7]
7.72	CC(C)c1cccc(CNC[C@@H](O)[C@@H]2C[C@H](C)CCCCC[C@H](C)CCC(=O)N(C)[C@@H](C)C(=O)N2)c1 [BACE_33]
8.46	C[C@@H]1CCCCCCCCC(=O)N(C)[C@@H](C)C(=O)N[C@H]([C@H](O)CNCc2cc(CC(C)(C)C)on2)C1 [BACE_29]
7.24	CC(C)c1cccc(C(C)(C)NC[C@@H](O)[C@@H]2Cc3cccc(c3)OCCCCNc3cncc(c3)C(=O)N2)c1 [BACE_114]
